According to ChEMBL document CHEMBL5058564, “EUbOPEN Chemogenomics Library 2 (Incucyte)” (2022):
“And” between values parts separate entries of the source, which are not always exact repeats. Identical values can stand only once.

Key:
Assay type in all cases: toxicity, cell-based
Fibroblast = test: Incucyte cell viability with human fibroblast; settings: 10 µM, compound concentration 10 uM
U2OS = test: Incucyte cell viability with U2OS; settings: human, 10 µM, compound concentration 10 uM
HEK-293T = test: Incucyte cell viability with HEK293T; settings: human, 10 µM, compound concentration 10 uM
[1] = 0 h, replicate number 2, timepoint 0 hours
[2] = 6 h, replicate number 2, timepoint 6 hours
[3] = 12 h, replicate number 2, timepoint 12 hours
[4] = 6 h, replicate number 1, timepoint 6 hours
[5] = 18 h, replicate number 2, timepoint 18 hours
[6] = 12 h, replicate number 1, timepoint 12 hours
[7] = 18 h, replicate number 1, timepoint 18 hours
[8] = 24 h, replicate number 1, timepoint 24 hours
[9] = 0 h, replicate number 1, timepoint 0 hours
[10] = 24 h, replicate number 2, timepoint 24 hours
Also: unitless GR value; below 1 slowed growth and below 0 cell loss.

SMILES	Growth Rate (Fibroblast; [1])	Growth Rate (U2OS; [1])	Growth Rate (U2OS; [4])	Growth Rate (U2OS; [3])	Growth Rate (U2OS; [5])	Growth Rate (HEK-293T; [1])	Growth Rate (HEK-293T; [6])	Growth Rate (HEK-293T; [3])	Growth Rate (HEK-293T; [7])	Growth Rate (HEK-293T; [8])	Growth Rate (Fibroblast; [9])	Growth Rate (Fibroblast; [10])	Growth Rate (U2OS; [9])	Growth Rate (U2OS; [6])	Growth Rate (U2OS; [7])	Growth Rate (U2OS; [8])	Growth Rate (HEK-293T; [9])	Growth Rate (HEK-293T; [10])	Growth Rate (U2OS; [2])	Growth Rate (U2OS; [10])	further results
CCCCC(=O)N(Cc1ccc(-c2ccccc2-c2nnn[nH]2)cc1)[C@H](C(=O)O)C(C)C	0.94	-0.99	0.76	0.99	0.92	0.85	0.75	0.94	0.6	0.8											Growth Rate (Fibroblast; [2]): 0.44; Growth Rate (Fibroblast; [3]): 0.96; Growth Rate (HEK-293T; [4]): 0.44; Growth Rate (HEK-293T; [2]): 0.43
CCOC(=O)c1c(/C(C#N)=C\N)c2ccc(Cl)c(Cl)c2n1C			0.29			0.59		0.77	0.9	0.99	0.69	0.73	-0.21	0.64	0.5	0.73	0.5	0.93			Growth Rate (Fibroblast; [6]): 0.64; Growth Rate (Fibroblast; [3]): 0.53; Growth Rate (Fibroblast; [7]): 0.47; Growth Rate (Fibroblast; [5]): 0.72; Growth Rate (Fibroblast; [8]): 0.29; Growth Rate (HEK-293T; [4]): 0.56; Growth Rate (HEK-293T; [2]): 0.47; Growth Rate (HEK-293T; [5]): 0.7
CCOC(=O)Nc1cc(-c2ccc(C)c(NS(C)(=O)=O)c2)nn2c(C)nnc12	0.22		0.15	0.95	0.95	0.66	0.95		0.79	0.46		0.95	0.25	0.56	0.82	0.83	0.65	0.76	0.59	0.84	Growth Rate (Fibroblast; [4]): -0.16; Growth Rate (HEK-293T; [5]): 0.98
O=C(Nc1cc(C(F)(F)F)ccc1N1CCCCC1)c1ccncc1	0.62	0.81	0.54	0.76	0.99	0.52		0.9				0.83	-0.22	0.85	0.87	0.81	0.08	0.95	0.75		Growth Rate (Fibroblast; [4]): -0.18; Growth Rate (Fibroblast; [6]): 0.52; Growth Rate (Fibroblast; [7]): 0.65; Growth Rate (Fibroblast; [8]): 0.59
CCCCNNC(=O)c1ccc(Br)cc1	0.26	-0.23		0.99		0.79	0.93	0.77			0.73	0.91			0.94		0.97			0.91	Growth Rate (Fibroblast; [4]): -0.07; Growth Rate (Fibroblast; [2]): 0.86; Growth Rate (Fibroblast; [6]): 0.37; Growth Rate (Fibroblast; [7]): 0.74; Growth Rate (Fibroblast; [5]): 0.93; Growth Rate (Fibroblast; [8]): 0.99
C=CCNc1ncnc2ccc(Br)cc12	0.05	0.44		0.77	0.85	0.64	0.84		0.58	0.91		0.75		0.96	0.82	0.97	0.98	0.96		0.9	Growth Rate (Fibroblast; [6]): 0.47; Growth Rate (Fibroblast; [7]): 0.3; Growth Rate (Fibroblast; [5]): 0.98; Growth Rate (Fibroblast; [8]): 0.45; Growth Rate (HEK-293T; [4]): 0.57; Growth Rate (HEK-293T; [5]): 0.9
Nc1nccc(-c2ccn3c(N)nccc23)n1	-0.24	0.39		0.92	0.85	0.28			0.93	0.76	-0.59	0.72	0.63			0.98	-0.7	1	0.89	0.82	Growth Rate (Fibroblast; [3]): 0.84; Growth Rate (Fibroblast; [5]): 0.76
COc1cc(Nc2nc(C)cc(-c3cnn4nc(OC)ccc34)n2)cc(C(F)(F)F)c1		0.84	0.24	1 and 0.46	0.62 and 0.36			0.84				0.58 and 0.24	0.11	0.61 and 0.48	0.85 and 0.45	0.62 and 0.35	0.76	0.85	0.89 and 0.77	0.76 and 0.27	Growth Rate (Fibroblast; [5]): 0.67 and 0.25; Growth Rate (HEK-293T; [2]): 0.89; Growth Rate (HEK-293T; [5]): 0.94
CC1=C(C)C(=O)C(C(C)(C)CC(=O)N(CCCCSC[C@H]2O[C@@H](n3cnc4c(N)ncnc43)[C@@H]3OC(C)(C)O[C@@H]32)Cc2cccc(-c3ccc(Cl)cc3)c2)=C(C)C1=O	0.08			0.93	0.87	0.07	0.85	0.97		0.96	0.04		-0.32	0.3	0.49	0.63	0.72			0.92	Growth Rate (HEK-293T; [5]): 0.94
COC[C@@H](CC(C)C)NC1=N/C(=C\c2ccc3ncsc3c2)C(=O)N1C	-0.23	0.78		0.53	0.38	-0.15	0.24	0.41	0.39	0.48	0.25			0.43	0.22	0.25	-0.43	0.42		0.35	Growth Rate (HEK-293T; [4]): 0.84; Growth Rate (HEK-293T; [5]): 0.38
CC(=O)c1cc(-c2ccccc2OCC2CC2)c2ncccn12	0.39	0.26	0.45						0.98				0.8		0.98	0.98	0.61		0.99		Growth Rate (Fibroblast; [2]): 0.72; Growth Rate (Fibroblast; [3]): 0.88
CN(c1ncccc1CNc1ccnc(-c2nc3c(F)c(Cl)ccc3[nH]2)n1)S(C)(=O)=O	0.75	-0.69	0.1	0.66	0.87	0.48	0.97	0.72	0.93			0.92	-0.62	0.15	0.62	0.78	-0.02	0.81	0.61	0.72	Growth Rate (Fibroblast; [4]): -0.47; Growth Rate (Fibroblast; [6]): 0.38; Growth Rate (Fibroblast; [7]): 0.27; Growth Rate (Fibroblast; [8]): 0.36; Growth Rate (HEK-293T; [4]): 0.84; Growth Rate (HEK-293T; [5]): 0.99
CC1=C(C)C(=O)C(C(C)(C)CC(=O)N(CCCCSC[C@H]2O[C@@H](n3cnc4c(N)ncnc43)[C@H](O)[C@@H]2O)Cc2cccc(-c3ccc(Cl)cc3)c2)=C(C)C1=O	-0.71		0.21	0.93	0.91	-1	0.2		0.17	0.16	0.23			0.36	0.51	0.53	-0.9		0.98	0.95	Growth Rate (Fibroblast; [4]): -0.29; Growth Rate (Fibroblast; [2]): 0.84; Growth Rate (Fibroblast; [6]): 0.78; Growth Rate (HEK-293T; [4]): 0.57
Cc1onc(-c2ccccc2Cl)c1C(=O)N(C)c1ccc(Cl)cc1	0.86			0.67	0.85	0.62					-0.53								0.56	0.96	
